Assay results taken from patent US10961202B2, “Bis-benzimidazole compounds and methods of using the same” (THE SCRIPPS RESEARCH INSTITUTE, priority 2017, dated 2021).

Tested on: r(CUG)12-MBNL1 complex
Test: Inhibition of the r(CUG)12-MBNL1 complex measured by TR-FRET
Format: biochemical
Details: 80 nM RNA, 60 nM MBNL1-His6

| SMILES | IC50 (Table M) | IC50 (Table L) |
| --- | --- | --- |
| NC(=O)c1ccc2nc(-c3ccc(-c4nc5ccc(C(N)=O)cc5[nH]4)cc3)[nH]c2c1 [Compound 12, 2,2′-(1,4-phenylene)bis(1H-benzo[d]imidazole-6-carboxamide)] | – | > 200 µM |
| CN(C)CCNC(=O)c1ccc(-c2nc3ccc(-c4ccc5nc(-c6ccc(C(=O)NCCCOCCOCCOCCCNC(=O)c7ccc(-c8nc9ccc(-c%10ccc%11nc(-c%12ccc(C(=O)NCCN(C)C)cc%12)[nH]c%11c%10)cc9[nH]8)cc7)cc6)[nH]c5c4)cc3[nH]2)cc1 [Compound 429] | 9.6 µM | – |
| CN(C)CCCOc1cc(F)cc2nc(-c3ccc(-c4nc5cc(F)cc(OCCCN(C)C)c5[nH]4)cc3)[nH]c12 [Compound 287] | 8.6 µM | – |
| CN(C)CCCOc1cccc2nc(-c3ccc(-c4nc5cccc(O)c5[nH]4)cc3)[nH]c12 [Compound 216, 2-(4-(7-(3-(dimethylamino)propoxy)-1H-benzo[d]imidazol-2-yl)phenyl)-1H-benzo[d]imidazol-7-ol] | 125 µM | – |
| Nc1ccc2nc(-c3ccc(-c4nc5ccc(N)cc5[nH]4)cc3)[nH]c2c1 [Compound 2, 2,2′-(1,4-phenylene)bis(1H-benzo[d]imidazol-6-amine)] | – | 197 µM |
| CN(C)CCOc1ccc2nc(-c3ccc(-c4nc5ccc(OCCN(C)C)cc5[nH]4)cc3)[nH]c2c1 [Compound 57, 2,2′-((2,2′-(1,4-phenylene)bis(1H-benzo[d]imidazole-6,2-diyl))bis(oxy))bis(N,N-dimethylethanamine)] | – | 119 µM |
| CC(C)(C)OC(=O)N1CCN=C1Nc1ccc2[nH]c(-c3ccc(-c4nc5cc(N)ccc5[nH]4)cc3)nc2c1 [Compound 23, tert-butyl 2-((2-(4-(5-amino-1H-benzo[d]imidazol-2-yl)phenyl)-1H-benzo[d]imidazol-5-yl)amino)-4,5-dihydro-1H-imidazole-1-carboxylate] | – | 55 µM |
| NC(=O)c1ccc(-c2nc3cc(-c4ccc5[nH]c(-c6ccc(C(N)=O)cc6)nc5c4)ccc3[nH]2)cc1 [Compound 101] | – | > 200 µM |
| COc1ccc2nc(-c3ccc(-c4nc5ccc(OCCCN(C)C)cc5[nH]4)cc3)[nH]c2c1 [Compound 245, 3-((2-(4-(6-methoxy-1H-benzo[d]imidazol-2-yl)phenyl)-1H-benzo[d]imidazol-6-yl)oxy)-N,N-dimethylpropan-1-amine] | 83.8 µM | – |
| CCCOc1cc(-c2nc3cc(OCCCN(C)C)ccc3[nH]2)c(OCCC)cc1-c1nc2cc(OCCCN(C)C)ccc2[nH]1 [Compound 332] | 27.2 µM | – |
| CN(C)CCCOc1ccc2nc(-c3ccc(-c4nc5ccc(C(=O)NCCN6CCCC6)cc5[nH]4)cc3)[nH]c2c1 [Compound 232, 2-(4-(6-(3-(dimethylamino)propoxy)-1H-benzo[d]imidazol-2-yl)phenyl)-N-(2-(pyrrolidin-1-yl)ethyl)-1H-benzo[d]imidazole-6-carboxamide] | 25 µM | – |
| CN(C)CCNC(=O)c1ccc(-c2nc3ccc(-c4ccc5nc(-c6ccc(C(=O)N[C@H]7CCN(C(=O)c8ccc(-c9nc%10ccc(-c%11ccc%12nc(-c%13ccc(C(=O)NCCN(C)C)cc%13)[nH]c%12c%11)cc%10[nH]9)cc8)C7)cc6)[nH]c5c4)cc3[nH]2)cc1 [Compound 455] | 3.8 µM | – |
| CN(C)NC(=O)Nc1ccc2nc(-c3ccc(-c4nc5ccc(NC(=O)NN(C)C)cc5[nH]4)cc3)[nH]c2c1 [Compound 66, N,N′-(2,2′-(1,4-phenylene)bis(1H-benzo[d]imidazole-6,2-diyl))bis(2,2-dimethylhydrazinecarboxamide)] | – | > 200 µM |
| O=C(O)c1ccc2nc(-c3ccc(-c4nc5ccc(C(=O)O)cc5[nH]4)cc3)[nH]c2c1 [Compound 11, 2,2′-(1,4-phenylene)bis(1H-benzo[d]imidazole-6-carboxylic acid)] | – | > 200 µM |
| CN(C)CCNC(=O)c1ccc2nc(-c3ccc(-c4nc5ccc(C(=O)NCCNC(=O)OC(C)(C)C)cc5[nH]4)cc3)[nH]c2c1 [Compound 49, tert-butyl (2-(2-(4-(6-((2-(dimethylamino)ethyl)carbamoyl)-1H-benzo[d]imidazol-2-yl)phenyl)-1H-benzo[d]imidazole-6-carboxamido)ethyl)carbamate] | – | 22.1 µM |
| C[C@H](CN(C)C)NC(=O)c1ccc(-c2nc3cc(-c4ccc5[nH]c(-c6ccc(C(=O)N[C@H](C)CN(C)C)cc6)nc5c4)ccc3[nH]2)cc1 [Compound 388] | 30.2 µM | – |
| c1cc2nc(-c3ccc(-c4nc5ccc(OCCN6CCCC6)cc5[nH]4)cc3)[nH]c2cc1OCCN1CCCC1 [Compound 203] | 103 µM | – |
| CCN(CC)C(=O)COc1ccc(-c2nc3cc(-c4ccc5[nH]c(-c6ccc(OCC(=O)N(CC)CC)cc6)nc5c4)ccc3[nH]2)cc1 [Compound 349] | > 200 µM | – |
| CN(C)CCN(C)C(=O)c1ccc2nc(-c3ccc(-c4nc5ccc(C(=O)N(C)CCN(C)C)cc5[nH]4)cc3)[nH]c2c1 [Compound 68] | – | > 200 µM |
| O=C(NCCN1CCCC1)c1ccc2nc(-c3ccc(-c4nc5ccc(C(=O)NCCN6CCCC6)cc5[nH]4)cc3)[nH]c2c1 [Compound 40, 2,2′-(1,4-phenylene)bis(N-(2-(pyrrolidin-1-yl)ethyl)-1H-benzo[d]imidazole-6-carboxamide)] | – | 7 µM |
| CC(=O)Nc1ccc2nc(-c3ccc(-c4nc5ccc(Nc6ncccn6)cc5[nH]4)cc3)[nH]c2c1 [Compound 7, N-(2-(4-(5-(pyrimidin-2-ylamino)-1H-benzo[d]imidazol-2-yl)phenyl)-1H-benzo[d]imidazol-5-yl)acetamide] | – | 80 µM |
| CN(C)[C@H]1CC[C@H](Oc2ccc3nc(-c4ccc(-c5nc6ccc(O[C@H]7CC[C@H](N(C)C)CC7)cc6[nH]5)cc4)[nH]c3c2)CC1 [Compound 219] | 18.1 µM | – |
| CN(C)CCCOc1ccc2nc(-c3ccc(-c4nc5ccc(OCCCN(C)C)cc5[nH]4)nn3)[nH]c2c1 [Compound 292] | 14 µM | – |
| CN1CCC(Oc2ccc3nc(-c4ccc(-c5nc6ccc(OC7CCN(C)CC7)cc6[nH]5)cc4)[nH]c3c2)CC1 [Compound 208] | 101 µM | – |
| c1cnc(Nc2ccc3nc(-c4ccc(-c5nc6ccc(Nc7ncccn7)cc6[nH]5)cc4)[nH]c3c2)nc1 [Compound 8, 2,2′-(1,4-phenylene)bis(N-(pyrimidin-2-yl)-1H-benzo[d]imidazol-5-amine)] | – | 150 µM |
| C#CCCCCNC(=O)CCCOc1ccc2[nH]c(-c3ccc(-c4nc5cc(OCCCN(C)C)ccc5[nH]4)cc3)nc2c1 [Compound 323] | 20.3 µM | – |
| CN(C)CCCN(CCCNC(=O)c1ccc(-c2nc3ccc(-c4ccc5nc(-c6ccc(C(=O)NCCN(C)C)cc6)[nH]c5c4)cc3[nH]2)cc1)C(=O)c1ccc(-c2nc3ccc(-c4ccc5nc(-c6ccc(C(=O)NCCN(C)C)cc6)[nH]c5c4)cc3[nH]2)cc1 [Compound 450] | 29.2 µM | – |

The next lines start with the values.

| IC50 (Table M) | IC50 (Table L) | SMILES |
| --- | --- | --- |
| 39.8 µM | – | NCc1cccc(Oc2ccc3nc(-c4ccc(-c5nc6ccc(Oc7cccc(CN)c7)cc6[nH]5)cc4)[nH]c3c2)c1 [Compound 234, (((2,2′-(1,4-phenylene)bis(1H-benzo[d]imidazole-6,2-diyl))bis(oxy))bis(3,1-phenylene))dimethanamine] |
| – | 24 µM | Cn1c(-c2ccc(N)cc2)nc2cc(-c3ccc4c(c3)nc(-c3ccc(N)cc3)n4C)ccc21 [Compound 122, 1,1′-dimethyl-2,2′-bis(4-aminophenyl)-1H,1′H-5,5′-bibenzimidazole] |
| 189 µM | – | CN(C)CCOCCOc1ccc2nc(-c3ccc(-c4nc5ccc(OCCOCCN(C)C)cc5[nH]4)cc3)[nH]c2c1 [Compound 179, 2,2′-((((1,4-phenylenebis(1H-benzo[d]imidazole-2,6-diyl))bis(oxy))bis(ethane-2,1-diyl))bis(oxy))bis(N,N-dimethylethan-1-amine)] |
| – | 144 µM | N=C(NO)c1ccc(-c2nc3cc(-c4ccc5[nH]c(-c6ccc(C(=N)NO)cc6)nc5c4)ccc3[nH]2)cc1 [Compound 98] |
| 46.9 µM | – | CCN(CC)CCCOc1ccc2nc(-c3ccc(-c4nc5ccc(O)cc5[nH]4)cc3)[nH]c2c1 [Compound 188] |
| – | 18.2 µM | CN1CCN(CCNC(=O)c2ccc3nc(-c4ccc(-c5nc6ccc(C(=O)NCCN7CCN(C)CC7)cc6[nH]5)cc4)[nH]c3c2)CC1 [Compound 45, 2,2′-(1,4-phenylene)bis(N-(2-(4-methylpiperazin-1-yl)ethyl)-1H-benzo[d]imidazole-6-carboxamide)] |
| 58.9 µM | – | CCN(CC)CCCOc1ccc2nc(-c3ccc(-c4nc5ccc(OCCCN(CC)CC)cc5[nH]4)cc3)[nH]c2c1 [Compound 187] |
| 21.4 µM | – | CN(C)CCCOc1ccc2nc(-c3cnc(-c4nc5ccc(OCCCN(C)C)cc5[nH]4)nc3)[nH]c2c1 [Compound 317] |
| – | 9.5 µM | C#CCCCCN(C)CCNC(=O)c1ccc2nc(-c3ccc(-c4nc5ccc(C(=O)NCCN(C)C)cc5[nH]4)cc3)[nH]c2c1 [Compound 73] |
| 41.6 µM | – | CN(C)CCCSc1ccc(-c2nc3cc(-c4ccc5[nH]c(-c6ccc(SCCCN(C)C)cc6)nc5c4)ccc3[nH]2)cc1 [Compound 383] |
| – | > 200 µM | CC(=O)Nc1ccc2nc(-c3ccc(-c4nc5ccc(N)cc5[nH]4)cc3)[nH]c2c1 [Compound 4, N-(2-(4-(5-amino-1H-benzo[d]imidazol-2-yl)phenyl)-1H-benzo[d]imidazol-5-yl)acetamide] |
| 2.9 µM | – | CN(C)CCNC(=O)c1ccc(-c2nc3ccc(-c4ccc5nc(-c6ccc(C(=O)NC7CCC(CC8CCC(NC(=O)c9ccc(-c%10nc%11ccc(-c%12ccc%13nc(-c%14ccc(C(=O)NCCN(C)C)cc%14)[nH]c%13c%12)cc%11[nH]%10)cc9)CC8)CC7)cc6)[nH]c5c4)cc3[nH]2)cc1 (stereo not drawn) [Compound 428] |
| – | 9.5 µM | C#CCCCCN(C)CCNC(=O)c1ccc(-c2nc3cc(-c4ccc5[nH]c(-c6ccc(C(=O)NCCN(C)C)cc6)nc5c4)ccc3[nH]2)cc1 [Compound 114, N-(2-(dimethylamino)ethyl)-4-(2′-(4-((2-(hex-5-yn-1-yl(methyl)amino)ethyl)carbamoyl)phenyl)-1H,1′H-[5,5′-bibenzo[d]imidazol]-2-yl)benzamide] |
| – | > 200 µM | Cn1c(-c2ccc(-c3nc4ccc(NC(=N)N)cc4n3C)cc2)nc2ccc(NC(=N)N)cc21 [Compound 88] |
| – | 7.8 µM | CN(C)CCNC(=O)c1ccc2nc(-c3ccc(-c4nc5ccc(C(=O)NCCN(C)CCN)cc5[nH]4)cc3)[nH]c2c1 [Compound 37, N-(2-((2-aminoethyl)(methyl)amino)ethyl)-2-(4-(6-((2-(dimethylamino)ethyl)carbamoyl)-1H-benzo[d]imidazol-2-yl)phenyl)-1H-benzo[d]imidazole-6-carboxamide] |
